Assay results reported in article PMC6669887 (Analytical chemistry, 2019).

Test system: A2AR
Assay: Affinity MS assay/screen with purified immobilized receptor
Format: binding
Conditions: 480-mix cocktails

## CCNC(=O)[C@H]1O[C@@H](n2cnc3c(NCC(c4ccccc4)c4ccccc4)nc(C(=O)NCCNC(=O)NC4CCN(c5ccccn5)CC4)nc32)[C@H](O)[C@@H]1O [UK-432,097]
  hit detection/selection in 480-mix screens: detected in all cocktails
